Reference: patent US9078441B2, “Antimicrobial flush solutions” (Board of Regents, The University of Texas System, priority 2003, dated 2015)

Columns and labels:
C. parapsilosis = assay: Modified Robbins device (MRD) in vitro colonization model, Candida parapsilosis in biofilm on silicone catheter segments; format: cell-based; conditions: for 24 h Growth after 15 Minutes in Drug Mean CFU C. Parapsilosis / suppression / eradication / regrowth of C. parapsilosis embedded in biofilm, in words: 15 min exposure; for 24 h Growth after 15 Minutes in Drug Mean CFU C. Parapsilosis: then re-incubation in broth for 24 h; for suppression / eradication / regrowth of C. parapsilosis embedded in biofilm, in words: with or without 24 h re-incubation in broth; for 15 Minutes in Drug Mean CFU C. Parapsilosis: cultured immediately after 15 min exposure at 37° C.
From the text: (§1) The in vitro model utilized a modified Robbins device (MRD) to study the colonization of catheter segments with organisms embedded in biofilm. The modified Robbins device has been previously described (Nickel et al., 1991; Evans et al., 1987, see also U.S. Pat. No. 5,362,754) and is constructed from an acrylic block, 42 cm long with a lumen of 2×10 mm. It consists of 25 evenly spaced specimen plugs, each connected to a silicone catheter segment (Allegiance Healthcare Corp., McGaw Park, Ill.) whose anterior surface (0.3 cm^2) comes in conta-ct with the flushed infusate. After placing the catheter segments in the specimen plug of the modified Robbins device, the entire apparatus was gas sterilized using ethylene oxide. A 500 ml 5% dextrose in water (5% D5/W) was connected to the modified Robbins device through an intravenous tubing administration set and was subsequently infected with an innoculum of 10^8 CFU/ml of methicillin-resistant Staphylococcus aureus (MRSA), to produce an infected infusate at the concentration of 2×10^5 CFU/ml. The biofilm-producing S. aureus isolates were obtained from patients with CRBSI. In another series of experiments, 500 ml 5% D5/W bag was infected with a biofilm-producing C. parapsilosis using an inoculum of 10^5 CFU/ml to produce an infected infusate at a concentration of 2×10^2 CFU/ml of C. parapsilosis. The whole system was incubated at 37° C. and the infected infusate was flushed through the MRD using a peristaltic pump permitting the infusate to flow at the rate of 60 ml/hour for 8 hours. The modified Robbins device was left to incubate for a total of 18 hours (another 10 hours). Subsequently, the infected bag was removed and a 250 ml saline sterile bag which was infused through the MRD at 125 ml/hour for 2 hours in order to remove all free floating organisms. To insure biofilm formation, at least three catheter segments were randomly removed from the 25 evenly spaced catheter segments in the MRD and studied by scanning electron microscopy. This was repeated for every organism tested.
(§2) The remaining catheter segments were removed and each segment was placed in a tube containing 2 ml of one of the following broth solutions: (1) Mueller-Hinton broth (Becton Dickinson & Co., Cockeysville, Md.); (2) EDTA at a concentration of 30 mg/ml in broth (Abbott Laboratories, North Chicago, Ill.); (3) minocycline at 3 mg/ml in broth (Wyeth-Ayerst Laboratories, Collegeville, Pa.); (4) minocycline (3 mg/ml) and EDTA combination (M-EDTA) in broth; (5) 25% ethanol (ETOH) solution in broth; (6) minocycline at 3 mg/ml in 25% ethanol solution in broth; (7) EDTA 30 mg/ml in 25% ethanol solution in broth; and (8) M-EDTA in 25% ethanol solution in broth. The experiments were repeated in triplicate or quadruplicate, and during each experiment, 2-5 catheter segments were exposed to the same solution for only 15 minutes at 37° C. Subsequently, some of the catheter segments were immediately removed and cultured by scrape sonication. Other alternating catheter segments were removed, placed in broth (TSB), incubated for 24 hours, and then cultured by scrape sonication. This added step of re-incubating catheter segments in broth after the 15 minutes exposure was done to determine whether these agents suppressed the growth of organisms embedded in biofilm or eradicated them. The surface of the catheter segment that was exposed to the infected infusate was scraped with a sterile wooden applicator stick and placed, along with the stick, in a tube containing 0.5 ml of trypticase soy broth. The tubes were sonicated for five minutes; 0.1 ml of the sonicated broth solution in the tube was pipetted and plated over a blood agar plate, which was incubated at 37° for 24 hours. The agar plates were checked for any contaminants. The isolated organisms had to be of the same species and colonial morphology as the original organism used to infect the infusate.

[1] = system: methicillin-resistant Staphylococcus aureus (MRSA); assay: Modified Robbins device (MRD) in vitro colonization model, MRSA in biofilm on silicone catheter segments; format: cell-based; conditions: for 24 h growth after 15 min in drug mean CFU MRSA / suppression / eradication / regrowth of MRSA embedded in biofilm, in words: 15 min exposure; for 24 h growth after 15 min in drug mean CFU MRSA: then re-incubation in broth for 24 h at 37° C.; for suppression / eradication / regrowth of MRSA embedded in biofilm, in words: with or without 24 h re-incubation in broth; for 15 minutes in Drug mean CFU MRSA: catheter segments cultured by scrape sonication immediately after 15 min exposure at 37° C., confluent growth counted as 500
From the text: as §1, §2

MRSA = assay: Silicone disk bioprosthetic colonization MRSA model; format: cell-based, Staphylococcus aureus; conditions: for suppression / eradication / regrowth of bioprosthetic MRSA colonization of silicone disks, in words / 1 hour in Drug Mean CFU ± std. error: 1 hour exposure; for suppression / eradication / regrowth of bioprosthetic MRSA colonization of silicone disks, in words: with or without 24 h incubation; for 1 hour in Drug Mean CFU ± std. error / 24 h Growth after 1 hour in Drug Mean CFU ± std. error: MRSA on silicone disks; for 1 hour in Drug Mean CFU ± std. error: up to 5,000 CFU/disk; for 24 h Growth after 1 hour in Drug Mean CFU ± std. error: exposure then 24 h reincubation in TSB
Description: (§3) On day 1, pieces of biofilm were prepared. Sterile (Ethylene Oxide Gas Sterilized) silicone disks were placed in 5 ml sterile snap top Falcon tubes and 0.5 ml of pooled plasma added. This was followed by incubation (while rocking) overnight at 37° C.
(§4) On day 2, the bacteria was added to form the biofilm. Using sterile plastic transfer pipettes, the plasma was suctioned out from the tubes and replaced with 0.5 ml of bacterial inoculum (50 ml of Mueller-Hinton broth containing 4-5 colonies of freshly grown bacteria). The tubes were incubated overnight at 37° C.
(§5) On day 3, a drug was added in an attempt to kill the bacteria. Before adding the drug, the pieces were washed in 0.5 ml of 0.9% saline in order to remove any planktonic bacteria. The tubes (containing the biofilm disks and saline) were placed in the incubator at 37° C. for 30 minutes. The saline was then pipetted out using sterile plastic transfer pipettes (taking care not to disturb the pieces too much). The silicone disks were then transferred to new 5 ml snap-top falcon tubes containing 0.5 ml of the drug solution to be tested. The drug solutions tested were as follows: (1) minocycline 3 mg/ml; (2) EDTA 30 mg/ml; (3) 25% ethanol solution; (4) EDTA 30 mg/ml in 25% ethanol; (5) minocycline 3 mg/ml in 25% ethanol; (6) minocycline 3 mg/ml with EDTA 30 mg/ml; and (7) triple combination of minocycline 3 mg/ml and EDTA 30 mg/ml in 25% ethanol solution. The disks were allowed to sit in the drug for 1 hour. The drug was then suctioned out using a plastic transfer pipette. The pieces were once again washed with 0.5 ml saline (added, and shaken for 30 seconds). The disks were then transferred to 15 ml snap-top falcon tubes containing 5 ml of 0.9% saline. The pieces were sonicated for 5 minutes, and then vortexed for 30 seconds. 100 microliters (μl) of the saline was then plated on a room temperature TSAII blood agar plate, and evenly spread using a sterile glass spreader. The plates were incubated overnight at 37° C.
(§6) For the 24 hour reincubation studies, pieces of biofilm were prepared the same exact way as the regular pieces. Before adding the drug, the pieces were washed in 0.5 ml of 0.9% saline in order to remove any planktonic bacteria. The tubes (now containing the biofilm disks and saline) were placed in the incubator at 37° C. for 30 minutes. The saline was then pipetted out using sterile plastic transfer pipettes (taking care not to disturb the pieces too much). The silicone disks were then transferred to new 5 ml snap-top falcon tubes containing 0.5 ml of the drug to be tested. […] The drug was then suctioned out using a plastic transfer pipette. The pieces were once again washed with 0.5 ml saline (added, and shaken for 30 seconds). The pieces were then transferred to new sterile 5 ml snap-top falcon tubes containing 0.5 ml of sterile trypticase soy broth (TSB) and then placed in the incubator at 37° C. overnight.
(§7) On day 4, colonies were counted and the results recorded. The colonies were hand counted, and counting was stopped at 100 colonies. Anything greater was considered >100 colonies. The counts were recorded, and multiplied by a factor of 50 because of the dilution factor between the 5 ml of saline containing the disk and the 100 μl that was plated onto the TSAII blood agar plates. The pieces were then sonicated (in the same TSB that grew overnight) for 5 minutes. 100 μl was then plated on TSAII blood agar plates, and the plates were placed in the incubator to grow overnight at 37° C.
(§8) On day 5, the regrowth pieces were counted. The colonies were hand counted, and counting was stopped at 100 colonies. Anything greater was considered >100 colonies. The counts were recorded, and multiplied by a factor of 5 because of the dilution factor between the 0.5 ml of TSB containing the disk and the 100 μl that was plated onto the TSAII blood agar plates.

Candida parapsilosis = assay: Silicone disk bioprosthetic colonization Candida parapsilosis model; format: cell-based; conditions: for suppression / eradication of Candida parapsilosis growth on silicone disks, in words / 1 hour in Drug Mean CFU C. Parapsilosis: 1 hour exposure; for 1 hour in Drug Mean CFU C. Parapsilosis / 24 h Growth after 1 hour in Drug Mean CFU C. Parapsilosis: silicone disks; for 24 h Growth after 1 hour in Drug Mean CFU C. Parapsilosis: exposure then 24 h reincubation in TSB
Description: as §3, §4, §5, §6, §7, §8

[2] = system: organisms that colonize the lumen of the catheter; conditions: dwell time of 4-24 hours; cited from earlier work

Row | SMILES | 24 h Growth after 15 Minutes in Drug Mean CFU C. Parapsilosis (C. parapsilosis) [CFU] | suppression / eradication / regrowth of C. parapsilosis embedded in biofilm, in words (C. parapsilosis) | 15 Minutes in Drug Mean CFU C. Parapsilosis (C. parapsilosis) [CFU] | 24 h growth after 15 min in drug mean CFU MRSA [1] [CFU] | suppression / eradication / regrowth of MRSA embedded in biofilm, in words [1] | 15 minutes in Drug mean CFU MRSA [1] [CFU] | suppression / eradication / regrowth of bioprosthetic MRSA colonization of silicone disks, in words (MRSA) | 1 hour in Drug Mean CFU ± std. error (MRSA) [CFU] | 24 h Growth after 1 hour in Drug Mean CFU ± std. error (MRSA) [CFU] | suppression / eradication of Candida parapsilosis growth on silicone disks, in words (Candida parapsilosis) | 1 hour in Drug Mean CFU C. Parapsilosis (Candida parapsilosis) [CFU] | 24 h Growth after 1 hour in Drug Mean CFU C. Parapsilosis (Candida parapsilosis) [CFU] | 24 h growth after 15 min in drug mean CFU MRSA ([1]; listed as 25% ethanol solution) [CFU] | 15 minutes in Drug mean CFU MRSA ([1]; listed as 25% ethanol solution) [CFU] | eradication of microbial organisms embedded in biofilm from catheter surfaces, in words [2]
1 | CN(C)c1ccc(O)c2c1C[C@H]1C[C@H]3[C@H](N(C)C)C(O)=C(C(N)=O)C(=O)[C@@]3(O)C(O)=C1C2=O [3 mg/ml minocycline, minocycline] | 500.0 ± 0.0 | failed to eradicate | 138.3 ± 111.8 | 308.3 ± 151.1 | some decrease in colonization | 323.7 ± 199.0 | failed to suppress | 5000.0 ± 0.0 | 5000.0 ± 0.0 | failed to suppress or eradicate | 5000.0 ± 0.0 | 5000.0 ± 0.0 |  |  | 
2 | CCO [25% EtOH in MHB, ethanol] | 142.9 ± 225.9 | regrowth was noted | 0 | 500.0 ± 0.0 |  | 138.0 ± 193.8 | failed to suppress | 2900.0 ± 722.8 | 5000.0 ± 0.0 | failed to completely suppress | 1933 ± 601.6 | 3875.0 ± 618.3 | 500 | 138 | 
3 | O=C(O)CN(CCN(CC(=O)O)CC(=O)O)CC(=O)O [30 mg/ml EDTA, ethylenediamine-N,N,N′,N′,-tetraacetic acid] | 500.0 ± 0.0 | failed to eradicate | 160 ± 78.8 | 500.0 ± 0.0 | failed to eradicate | 479.6 ± 44.9 | failed to suppress | 5000.0 ± 0.0 | 5000.0 ± 0.0 | failed to suppress or eradicate | 5000.0 ± 0.0 | 5000.0 ± 0.0 |  |  | 
4 | CN[C@H](CC(C)C)C(=O)N[C@H]1C(=O)N[C@@H](CC(N)=O)C(=O)N[C@H]2C(=O)N[C@H]3C(=O)N[C@H](C(=O)N[C@H](C(=O)O)c4cc(O)cc(O)c4-c4cc3ccc4O)[C@H](O)c3ccc(c(Cl)c3)Oc3cc2cc(c3O[C@@H]2O[C@H](CO)[C@@H](O)[C@H](O)[C@H]2O[C@H]2C[C@](C)(N)[C@H](O)[C@H](C)O2)Oc2ccc(cc2Cl)[C@H]1O [vancomycin alone, vancomycin] |  |  |  |  |  |  |  |  |  |  |  |  |  |  | failed to eradicate
